From patent US8053573B2, “Monomer 5, 6-diphenyl-1.2.4-traizinic derivatives and the use thereof” (Pierre Fabre Dermo-Cosmetique, priority 2004, dated 2011) come the findings set out here.

Values joined by “and” are separate entries in the source; they are usually repeats but may differ in a detail not shown here. Equal entries are not always repeated.

Holding throughout (assay type): physicochemical
The nature of data set [1]: Spectral characteristics: molar extinction coefficient and specific absorbance. The conditions noted are these: ethyl acetate, 10 μg/ml; for Maximum specific absorbance UVB / Maximum specific absorbance UVA: A1cm^1%. The source says: The calculation of the molar extinction coefficient (ε) is made from the Beer-Lambert law:
[formula] Wherein: A=absorbance I0=intensity of the incident light I=intensity of the transmitted light ε=molar extinction (or molar absorbance) coefficient in M^−1 cm^−1 l=path length in cm c=concentration in mol/l
The molar extinction coefficient can be expressed with respect to a given mass of the product. It thus makes it possible to be able to compare the coefficients of extinction between products for the same given quantity. This quantity is 1% by weight. The molar extinction coefficient thus becomes the specific absorbance (A1cm^1%).
[formula] Wherein: A1cm^1%=specific absorbance ε=molar extinction coefficient M=molar mass
The spectral characteristics of the compounds in comparison with commercial filters at a concentration of 10 μg/ml are summarized in tables 2-1 and 2-2.
Procedure: The products are dissolved in ethyl acetate to a concentration of 10 μg/ml. The spectra are measured using a dual-beam spectrophotometer (Varian CARY 50 Scan) between 290 nm and 400 nm.

Data set [2] is described as follows: Spectral distribution in UVA and UVB (290-400 nm). The conditions noted are these: range from 290 nm to 400 nm. The source says:
The products tested are classified according to spectral distribution in UVA and UVB in a range from 290 nm to 400 nm.
It is possible to differentiate them according to their spectral distribution:
Products with a narrow spectrum: • Products absorbing in the range between 280 nm and 320 nm (UVB) • Products absorbing in the range between 320 nm and 400 nm (UVA) Products with a broad spectrum: • Products absorbing in UVB (280-320 nm) and UVA-II […] • Products covering UVB and UVA (280-400 nm).

Data set [3] in a line: In vitro SPF in a chemical solvent (Diffey and Robson). Conditions: ethyl acetate solution, 10 μg/ml, transmittance 290-400 nm. As for the experimental part:
The in vitro methods of determining the protective effectiveness of sun products consist of measuring by transmission spectrophotometry the absorption spectrum of the filter in solution or of the product applied on a substrate with the aim of simulating the surface of the skin. The effectiveness against UVB and/or UVA rays, or the effect on the cutaneous response, are then determined by calculation, taking into account or not the UV radiation action spectrum for the damage considered.
The Sayre/Agin and Diffey/Robson method, used since the 1990s, involves a comparative measurement, with the aid of an integrating-sphere spectroradiometer, of the transition from 290 nm to 400 nm in 5 nm steps, the sample being subjected to UV radiation from a stable known source covering the whole of the UV spectrum (unfiltered xenon).
Diffey and Robson evaluate the erythemal response by the following calculation:
[formula] E(λ)=spectral irradiation in W(m^−2) (nm^−1) at 40° N sun at 20° zenith angle ε=erythematous capacity
The Diffey and Robson formula makes it possible to determine SPF from the measurement of transmittance between 290 nm and 400 nm. Transmittance is measured in solution in ethyl acetate at a concentration of 10 μg/ml using a UV-visible spectrophotometer (Varian CARY 50 Scan).

Data set [4] in a line: In vitro SPF in a primary formula (gel on PMMA plates). The conditions noted are these: PMMA plate, 1.2 mg/cm^2. As for the experimental part:
PMMA (polymethyl methacrylate) plates (50×50 mm, supplied by Europlast) were used.
The dose applied in the in vivo solar product evaluation protocols (2 mg/cm^2) is too high for the type of substrate employed here.
Gels were formulated from the triazines that are objects of this invention and certain reference filters. The molecules are solubilized in Transcutol® CG in a water bath. The solution is then placed under magnetic stirring and a gelling agent, Klucel HF (hydroxypropyl cellulose), is added at a concentration of 2%. Stirring is maintained for 30 minutes. SPF is measured using a Labsphere UV-1000 S Transmittance Analyzer spectrophotometer (Labsphere, North Sutton, N.H., USA).

Data set [5] in a line: Photostability in solution in a chemical solvent (Suntest CPS+). The conditions noted are these: 25 μg deposited from methanol, absorbance vs non-irradiated control, in % (unit assumed); for Photostability at 10 MED mean: Suntest irradiation 10 MED; for Photostability at 20 MED mean: Suntest irradiation 20 MED. The source says:
A Suntest CPS+ (Atlas, Linsengenicht/Altenhasslan, Germany) was used. The Suntest makes it possible to reproduce the solar spectrum and thus to carry out exposures inside at any time without weather constraints.
The radiance of the solar simulator was carefully measured with a spectroradiometer (MSS 2044, Bielefeld, Germany). UVB and UVA intensities were 0.49 mW/cm^2 and 6.32 mW/cm^2, respectively. The MED value defined by COLIPA is 5.6 J/cm^2 in total UV (22). The UV total (UVA+UVB) accounts for 14.8% of the energy delivered by the lamp (power 460 W/m^2). An irradiation dose equivalent to 1 MED corresponds to 37.83 J/cm^2 (in total spectrum) delivered by the lamp.
The Suntest test duration is calculated using the following formula: t=H/E with: […]
The solutions of the compounds are prepared at a concentration of 500 μg/ml in methanol. 50 μl (25 μg) of each solution are deposited in a crystallizer, then irradiated in the Suntest at 5, 10 and/or 20 MED. A non-irradiated control is prepared (deposit of 50 μl of solution and addition of 2.450 ml of methanol). The solvent evaporates during irradiation and the products are taken up in 2.5 ml of methanol. After irradiation, the absorbance of each solution is measured with the UV-visible spectrophotometer (Varian CARY 50 Scan).

Data set [6] in a line: Solubility study in solvents or excipients used in cosmetics.
Data set [7] in a line: Spectral characteristics: molar extinction coefficient and specific absorbance. The conditions noted are these: ethyl acetate, 10 μg/ml; for Maximum specific absorbance UVC: A1cm^1%.
Setting [8] is: single filter 3% in Transcutol CG / Klucel HF gel.
The mark [9] stands for this setting: Finsol V NT ® (C12-C15 alkyl benzoate).

Regarding `COc1ccc(-c2nnc(-c3ccc(O)cc3)nc2-c2ccc(OC)cc2)cc1` [JR65, 3-(4-hydroxyphenyl)-5,6-bis(4-methoxyphenyl)-1,2,4-triazine], the “Maximum specific absorbance UVB” value in data set [1] is listed as 809. Moreover, the “Maximum molar extinction coefficient UVB” value in data set [1] came out at 31100 M⁻¹ cm⁻¹. In addition, the “Wavelength of maximum molar extinction coefficient UVB” value in data set [1] is reported as “at 315”. The “Wavelength of maximum specific absorbance UVB” value in data set [1] was “at 315”. In data set [2], the Spectral distribution result is reported as “absorb in UVB”. In addition, the SPF is 68.21 in data set [3]; 9.8 and 10.9 in data set [4] (setting [8]). In data set [5], the “Photostability at 10 MED mean” value amounted to 96.91. Besides, in data set [5], the “Photostability at 20 MED mean” value is 85.5. In addition, the “Solubility (%)” value amounted to 8% in data set [6] (Arlasolve DMI ® (dimethyl isosorbide)); 5% in data set [6] (Butylene glycol); 1% in data set [6] (Cetiol SN ® (decyl oleate)); 2% in data set [6] (Cetiol V ® (cetearyl isononanoate)); 1% in data set [6] (setting [9]); 5% in data set [6] (Hexylene glycol). Moreover, the “Solubility (%)” value is 2% in data set [6] (Isopropyl adipate), 5% in data set [6] (Isopropyl myristate), 0.5% in data set [6] (Myritol 318 ® (caprylic/capric triglycerides)) and 5% in data set [6] (PEG400 ® (polyethylene glycol)).
On to `CCCCCCCCCCCCOc1ccc(-c2nnc(-c3ccc(OC)cc3)c(-c3ccc(OC)cc3)n2)cc1` [JR173, 3-(4-dodecyloxyphenyl)-5,6-bis(4-methoxyphenyl)-1,2,4-triazine], for which, in data set [1], the “Maximum specific absorbance UVB” value was found to be 878 at, the “Maximum molar extinction coefficient UVB” value was found to be 48600 M⁻¹ cm⁻¹, the “Wavelength of maximum molar extinction coefficient UVB” value is “at 305” and the “Wavelength of maximum specific absorbance UVB” value came to 305. Besides, the Spectral distribution entry in data set [2] was “absorb in UVB”. The same compound gave an SPF in data set [3] of 69.02. Besides, the “Solubility (%)” value in data set [6] (setting [9]) is 7%. Besides, in data set [6] (PEG400 ® (polyethylene glycol)), the “Solubility (%)” value stood at 2%.
`CCCCC(CC)COC(=O)C=Cc1ccc(OC)cc1` (stereo not shown) [Parsol MCX ®, reference compound]: in data set [1], the “Maximum specific absorbance UVB” value amounted to 848, the “Maximum molar extinction coefficient UVB” value is 24600 M⁻¹ cm⁻¹, the “Wavelength of maximum molar extinction coefficient UVB” value was “at 310” and the “Wavelength of maximum specific absorbance UVB” value is reported as “at 310”. The compound also yielded an SPF in data set [3] of 20.78. The SPF in data set [4] (single filter 5% in Transcutol CG / Klucel HF gel) is 17.2. Further, in data set [5], the “Photostability at 10 MED mean” value came out at 33.38 and the “Photostability at 20 MED mean” value came out at 11.63.
On to `CCCCC(CC)COc1ccc(-c2nc(-c3ccc(OC)cc3)nc(-c3ccc(OCC(CC)CCCC)cc3O)n2)c(O)c1` (stereo not shown) [Tinosorb S ®, reference compound], for which, in data set [1], the “Maximum specific absorbance UVA” value was 789, the “Maximum specific absorbance UVB” value worked out at 751, the “Maximum molar extinction coefficient UVA” value turned out to be 49580 M⁻¹ cm⁻¹ and the “Maximum molar extinction coefficient UVB” value is 47150 M⁻¹ cm⁻¹. Further, in data set [1], the “Wavelength of maximum molar extinction coefficient UVA” value is recorded as “at 345”, the “Wavelength of maximum molar extinction coefficient UVB” value is listed as “at 310”, the “Wavelength of maximum specific absorbance UVA” value is “at 345” and the “Wavelength of maximum specific absorbance UVB” value is “at 310”. In addition, in data set [2], the Spectral distribution result was “absorb in UVB and UVA”. In data set [3], this compound registered an SPF of 76.19. In data set [4] (setting [8]), this compound showed an SPF of 9.8.
For `COc1ccc(-c2nnc(N)nc2-c2ccc(OC)cc2)cc1` [JR77, 3-amino-5,6-bis(4-methoxyphenyl)-1,2,4-triazine], in data set [1], the “Maximum specific absorbance UVA” value stood at 249, the “Maximum molar extinction coefficient UVA” value was 7600 M⁻¹ cm⁻¹, the “Wavelength of maximum molar extinction coefficient UVA” value is listed as “at 360” and the “Wavelength of maximum specific absorbance UVA” value is “at 360”. The Spectral distribution entry in data set [2] was “absorb in UVB (280-320 nm) and UVA-II (280-340 nm)”. In data set [3], this compound returned an SPF of 47.16. In addition, in data set [5], the “Photostability at 10 MED mean” value came to 73.03 and the “Photostability at 20 MED mean” value was 61.14. Besides, in data set [7], the “Maximum specific absorbance UVC” value was 631, the “Maximum molar extinction coefficient UVC” value amounted to 19300 M⁻¹ cm⁻¹, the “Wavelength of maximum molar extinction coefficient UVC” value is given as “at 280” and the “Wavelength of maximum specific absorbance UVC” value is reported as “at 280”.
On to `COc1ccc(C(=O)CC(=O)c2ccc(C(C)(C)C)cc2)cc1` [Parsol 1789 ®, reference compound], for which, in data set [1], the “Maximum specific absorbance UVA” value is 1100, the “Maximum molar extinction coefficient UVA” value was 34100 M⁻¹ cm⁻¹, the “Wavelength of maximum molar extinction coefficient UVA” value is recorded as “at 360” and the “Wavelength of maximum specific absorbance UVA” value is listed as “at 360”. Further, the Spectral distribution result in data set [2] is reported as “only absorbs in UVA”. The same compound displayed an SPF in data set [3] of 51.1. Moreover, in data set [5], the “Photostability at 10 MED mean” value is 57.04 and the “Photostability at 20 MED mean” value amounted to 6.26. Also, in data set [7], the “Maximum specific absorbance UVC” value was determined as 278 at, the “Maximum molar extinction coefficient UVC” value was 8633 at M^−1 cm^−1, the “Wavelength of maximum molar extinction coefficient UVC” value came out at 275 and the “Wavelength of maximum specific absorbance UVC” value was 275.
